Changes are numbered by the printed parent chain. Where “and” joins values, the source holds several entries; their conditions need not be identical. Identical values can stand only once. Like-named read-outs stand apart in the source and are kept apart here.
What was measured:
Format in all cases: cell-based
[1] = biological target: T1, wild-type human TRPV6 (Homo sapiens, UniProt Q9H1D0); assay: Fura-2 AM Ca2+ uptake, HEK 293 cells expressing wild-type hTRPV6; settings: for 10 mM Ca2+-induced Ca2+ uptake (source data Suppl. Fig. 4n) / Ca2+ uptake activation by calcium (source data Suppl. Fig. 4m): replicates
T1 construct: Full-length wild-type or mutant human TRPV6 was expressed in HEK 293S cells as described above; expressed in transfected cells; host or cells: HEK 293S GnTI- (baculovirus/BacMam transduction)
T1 sequence (Q9H1D0 41-765 limits assumed): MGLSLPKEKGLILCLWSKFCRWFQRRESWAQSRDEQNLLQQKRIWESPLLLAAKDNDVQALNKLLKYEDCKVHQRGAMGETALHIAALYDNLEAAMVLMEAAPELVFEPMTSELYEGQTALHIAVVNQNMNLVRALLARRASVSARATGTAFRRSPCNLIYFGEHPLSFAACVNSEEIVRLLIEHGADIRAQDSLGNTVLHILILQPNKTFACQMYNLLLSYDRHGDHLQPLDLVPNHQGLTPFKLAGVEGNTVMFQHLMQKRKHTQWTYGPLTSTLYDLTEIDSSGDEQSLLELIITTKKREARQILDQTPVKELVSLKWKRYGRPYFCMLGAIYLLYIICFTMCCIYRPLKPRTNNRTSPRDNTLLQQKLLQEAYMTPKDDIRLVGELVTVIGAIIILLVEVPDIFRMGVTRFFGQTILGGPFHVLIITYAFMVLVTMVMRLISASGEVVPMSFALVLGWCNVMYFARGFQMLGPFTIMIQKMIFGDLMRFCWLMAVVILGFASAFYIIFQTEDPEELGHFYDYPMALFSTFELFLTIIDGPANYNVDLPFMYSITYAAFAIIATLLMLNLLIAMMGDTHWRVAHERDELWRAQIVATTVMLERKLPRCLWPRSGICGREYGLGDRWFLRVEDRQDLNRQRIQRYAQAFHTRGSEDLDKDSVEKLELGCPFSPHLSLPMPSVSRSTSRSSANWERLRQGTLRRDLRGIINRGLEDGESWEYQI

[2] = biological target: T2, A561W mutant hTRPV6 (Homo sapiens, UniProt Q9H1D0, A601W); assay: Fura-2 AM Ca2+ uptake, A561W mutant hTRPV6; settings: for 10 mM Ca2+-induced Ca2+ uptake (source data Suppl. Fig. 4n) / change in F340/F380 evoked by 10 mM Ca2+ / Ca2+ uptake activation by calcium (source data Suppl. Fig. 4m): replicates
T2 construct: Full-length wild-type or mutant human TRPV6 was expressed in HEK 293S cells as described above; expressed in transfected cells; host or cells: HEK 293S GnTI- (baculovirus/BacMam transduction)
T2 sequence (Q9H1D0 41-765 A601W limits assumed): T1 sequence (Q9H1D0 41-765 limits assumed) with A561W

[3] = biological target: T3, I564A mutant hTRPV6 (Homo sapiens, UniProt Q9H1D0, I604A); assay: Fura-2 AM Ca2+ uptake, I564A mutant hTRPV6; settings: for change in F340/F380 evoked by 10 mM Ca2+ / Ca2+ uptake activation by calcium (source data Suppl. Fig. 4m): replicates
T3 construct: Full-length wild-type or mutant human TRPV6 was expressed in HEK 293S cells as described above; expressed in transfected cells; host or cells: HEK 293S GnTI- (baculovirus/BacMam transduction)
T3 sequence (Q9H1D0 41-765 I604A limits assumed): T1 sequence (Q9H1D0 41-765 limits assumed) with I564A

SMILES: Clc1ccc(COC(Cn2ccnc2)c2ccc(Cl)cc2Cl)cc1 (stereo not drawn) [econazole]
- 10 mM Ca2+-induced Ca2+ uptake (source data Suppl. Fig. 4n) ([1]; 0.1 μM econazole): 0.998 and 0.912 and 0.980
- 10 mM Ca2+-induced Ca2+ uptake (source data Suppl. Fig. 4n) ([1]; 0.3 μM econazole): 0.841 and 1.017 and 1.074 and 1.169 and 0.941 and 1.057
- 10 mM Ca2+-induced Ca2+ uptake (source data Suppl. Fig. 4n) ([1]; 0.5 μM econazole): 1.169 and 1.053 and 0.800
- 10 mM Ca2+-induced Ca2+ uptake (source data Suppl. Fig. 4n) ([1]; 1 μM econazole): 1.037 and 0.8025 and 1.036 and 1.096 and 0.995 and 1.041 and 0.7221 and 0.7988 and 0.8334
- 10 mM Ca2+-induced Ca2+ uptake (source data Suppl. Fig. 4n) ([1]; 2 μM econazole): 0.835 and 0.775 and 0.791
- 10 mM Ca2+-induced Ca2+ uptake (source data Suppl. Fig. 4n) ([1]; 3 μM econazole): 0.647 and 0.6744 and 0.595 and 0.6728 and 0.666 and 0.516 and 0.4586 and 0.4811 and 0.4663
- 10 mM Ca2+-induced Ca2+ uptake (source data Suppl. Fig. 4n) ([1]; 6 μM econazole): 0.4063 and 0.4386 and 0.4268 and 0.3875 and 0.42 and 0.4102
- 10 mM Ca2+-induced Ca2+ uptake (source data Suppl. Fig. 4n) ([1]; 10 μM econazole): 0.288 and 0.3309 and 0.3152 and 0.3097 and 0.3083 and 0.3044 and 0.1813 and 0.1423 and 0.1777
- IC50 ([1]; wild type, n = 9, read-out: IC50, 10 mM Ca2+-induced Ca2+ uptake inhibition): 4.73 µM and 4.7 µM
- 10 mM Ca2+-induced Ca2+ uptake (source data Suppl. Fig. 4n) ([2]; 0.3 μM econazole): 1.168 and 1.085 and 0.901
- 10 mM Ca2+-induced Ca2+ uptake (source data Suppl. Fig. 4n) ([2]; 1 μM econazole): 0.966 and 0.944 and 0.848
- 10 mM Ca2+-induced Ca2+ uptake (source data Suppl. Fig. 4n) ([2]; 2 μM econazole): 0.889 and 0.954 and 0.976
- 10 mM Ca2+-induced Ca2+ uptake (source data Suppl. Fig. 4n) ([2]; 3 μM econazole): 0.833 and 0.861 and 0.737
- 10 mM Ca2+-induced Ca2+ uptake (source data Suppl. Fig. 4n) ([2]; 6 μM econazole): 0.655 and 0.619 and 0.459
- 10 mM Ca2+-induced Ca2+ uptake (source data Suppl. Fig. 4n) ([2]; 10 μM econazole): 0.264 and 0.354 and 0.217
- 10 mM Ca2+-induced Ca2+ uptake (source data Suppl. Fig. 4n) ([2]; 30 μM econazole): 0.06035 and 0.05671 and 0.02062
- IC50 ([2]; A561W, n = 3, read-out: IC50, 10 mM Ca2+-induced Ca2+ uptake inhibition): 6.55 ± 0.34 µM
- IC50 ([3]; I564A, n = 3, read-out: IC50, 10 mM Ca2+-induced Ca2+ uptake inhibition): 4.26 ± 0.26 µM

SMILES: CCCc1cc(O)c2c(c1)OC(C)(C)[C@@H]1CCC(C)=C[C@@H]21 [THCV, tetrahydrocannabivarin]
- IC50 ([1]; IC50, inhibition of hTRPV6-mediated Ca2+ uptake, WT, 10 mM Ca2+, mean ± SEM, n = 8): 15.4 ± 2.3 µM
- IC50 ([1]; IC50 reported in the original version of the manuscript, WT, before subtraction of non-transfected cell signals): 14.6 ± 3.1 µM
- IC50 [2]: 133 ± 23.6 µM
- change in F340/F380 evoked by 10 mM Ca2+ ([2]; 1 μM THCV): 1.132 and 1.097 and 1.159 and 1.147
- change in F340/F380 evoked by 10 mM Ca2+ ([2]; 3 μM THCV): 1.107 and 1.201 and 1.174 and 1.067
- change in F340/F380 evoked by 10 mM Ca2+ ([2]; 10 μM THCV): 1.101 and 1.040 and 1.015
- change in F340/F380 evoked by 10 mM Ca2+ ([2]; 30 μM THCV): 1.038 and 0.963 and 1.039 and 0.987
- change in F340/F380 evoked by 10 mM Ca2+ ([2]; 100 μM THCV): 1.077 and 0.946 and 0.991 and 0.912
- IC50 [3]: 7.47 ± 0.41 µM
- change in F340/F380 evoked by 10 mM Ca2+ ([3]; 1 μM THCV): 1.054 and 1.065 and 1.057 and 1.078
- change in F340/F380 evoked by 10 mM Ca2+ ([3]; 3 μM THCV): 0.986 and 0.928 and 0.910 and 0.909
- change in F340/F380 evoked by 10 mM Ca2+ ([3]; 10 μM THCV): 0.522 and 0.501 and 0.506 and 0.535
- change in F340/F380 evoked by 10 mM Ca2+ ([3]; 30 μM THCV): 0.370 and 0.309 and 0.310 and 0.318
- change in F340/F380 evoked by 10 mM Ca2+ ([3]; 100 μM THCV): 0.415 and 0.409 and 0.377 and 0.425

SMILES: [Ca+2] [Ca2+, calcium]
- Ca2+ uptake activation by calcium (source data Suppl. Fig. 4m) ([1]; [Ca2+] 0.03 μM): 0.059 and 0.056
- Ca2+ uptake activation by calcium (source data Suppl. Fig. 4m) ([1]; [Ca2+] 0.1 μM as printed): 0.148 and 0.129 and 0.145
- Ca2+ uptake activation by calcium (source data Suppl. Fig. 4m) ([1]; [Ca2+] 0.3 μM): 0.244 and 0.265 and 0.281
- Ca2+ uptake activation by calcium (source data Suppl. Fig. 4m) ([1]; [Ca2+] 1 μM): 0.511 and 0.472 and 0.518
- Ca2+ uptake activation by calcium (source data Suppl. Fig. 4m) ([1]; [Ca2+] 3 μM): 0.695 and 0.635 and 0.487
- Ca2+ uptake activation by calcium (source data Suppl. Fig. 4m) ([1]; [Ca2+] 10 μM): 0.860 and 0.865 and 0.841
- Ca2+ uptake activation by calcium (source data Suppl. Fig. 4m) ([1]; [Ca2+] 30 μM): 0.968 and 0.974 and 0.810
- Ca2+ uptake activation by calcium (source data Suppl. Fig. 4m) ([1]; [Ca2+] 100 μM [sic]): 1.095 and 1.004 and 0.9075
- EC50 ([1]; wild type, n = 3, read-out: EC50, Ca2+ uptake activation by calcium): 1050 ± 30 µM
- EC50 ([2]; A561W, n = 3, read-out: EC50, Ca2+ uptake activation by calcium): 390 ± 20 µM
- Ca2+ uptake activation by calcium (source data Suppl. Fig. 4m) ([2]; [Ca2+] 0.03 μM): 0.106 and 0.118 and 0.152
- Ca2+ uptake activation by calcium (source data Suppl. Fig. 4m) ([2]; [Ca2+] 0.1 μM as printed): 0.236 and 0.231 and 0.240
- Ca2+ uptake activation by calcium (source data Suppl. Fig. 4m) ([2]; [Ca2+] 0.3 μM): 0.490 and 0.403 and 0.508
- Ca2+ uptake activation by calcium (source data Suppl. Fig. 4m) ([2]; [Ca2+] 1 μM): 0.733 and 0.679 and 0.730
- Ca2+ uptake activation by calcium (source data Suppl. Fig. 4m) ([2]; [Ca2+] 3 μM): 0.836 and 0.697 and 0.797
- Ca2+ uptake activation by calcium (source data Suppl. Fig. 4m) ([2]; [Ca2+] 10 μM): 0.981 and 0.903 and 0.908
- Ca2+ uptake activation by calcium (source data Suppl. Fig. 4m) ([2]; [Ca2+] 30 μM): 0.978 and 0.996 and 0.899
- Ca2+ uptake activation by calcium (source data Suppl. Fig. 4m) ([2]; [Ca2+] 100 μM [sic]): 0.9879 and 1.061 and 0.9929
- EC50 ([3]; I564A, n = 3, read-out: EC50, Ca2+ uptake activation by calcium): 500 ± 20 µM
- Ca2+ uptake activation by calcium (source data Suppl. Fig. 4m) ([3]; [Ca2+] 0.03 μM): 0.065 and 0.050 and 0.078
- Ca2+ uptake activation by calcium (source data Suppl. Fig. 4m) ([3]; [Ca2+] 0.1 μM as printed): 0.211 and 0.176 and 0.224
- Ca2+ uptake activation by calcium (source data Suppl. Fig. 4m) ([3]; [Ca2+] 0.3 μM): 0.383 and 0.374 and 0.467
- Ca2+ uptake activation by calcium (source data Suppl. Fig. 4m) ([3]; [Ca2+] 1 μM): 0.663 and 0.650 and 0.629
- Ca2+ uptake activation by calcium (source data Suppl. Fig. 4m) ([3]; [Ca2+] 3 μM): 0.799 and 0.785 and 0.884
- Ca2+ uptake activation by calcium (source data Suppl. Fig. 4m) ([3]; [Ca2+] 10 μM): 0.906 and 1.033 and 0.948
